According to paper PMC6383986, “Fragment-Based Covalent Ligand Screening Enables Rapid Discovery of Inhibitors for the RBR E3 Ubiquitin Ligase HOIP” (Journal of the American Chemical Society, 2019):

What was measured:
[1] = biological target: T1, full-length recombinant IRAK4-FLAG (Homo sapiens, UniProt Q9NWZ3); assay: LCMS labelling of recombinant IRAK4; format: binding; details: 300 μM compound, 1.5 μM IRAK4, 1 h
T1 construct: recombinant full length IRAK4-FLAG; His6 (with the rest of the FlagHisAvi vector tag) (C, cleaved yes); made in house; host or cells: Sf9 insect cells (baculovirus)
T1 sequence (Q9NWZ3 whole entry): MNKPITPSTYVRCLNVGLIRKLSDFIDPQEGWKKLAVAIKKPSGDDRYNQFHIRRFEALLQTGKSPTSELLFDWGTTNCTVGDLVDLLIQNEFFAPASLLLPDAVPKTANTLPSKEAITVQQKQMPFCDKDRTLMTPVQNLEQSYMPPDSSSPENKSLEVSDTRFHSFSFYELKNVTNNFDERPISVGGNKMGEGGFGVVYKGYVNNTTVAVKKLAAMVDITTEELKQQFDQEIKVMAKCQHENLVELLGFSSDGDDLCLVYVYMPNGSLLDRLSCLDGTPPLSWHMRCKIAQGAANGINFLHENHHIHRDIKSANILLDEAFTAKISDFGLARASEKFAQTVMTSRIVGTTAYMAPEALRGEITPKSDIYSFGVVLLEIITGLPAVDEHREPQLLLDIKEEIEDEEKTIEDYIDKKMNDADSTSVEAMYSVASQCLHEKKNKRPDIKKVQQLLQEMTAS
Protocol: filter BODIPY FP S-pol 595). The percentage activity was plotted against different compound concentrations and fitted using the IC50 – 4 parameter logistic using GraFit7 Software (Supplementary Figure S17). Percentage activity was calculated by dividing each value by values for no inhibition, then multiplying it by 100. Background correction was carried out by subtracting […]
Two independent experiments were carried out in duplicate.
IRAK4 (1.5 µM) was incubated with compound (11a) (300 µM) in water at ambient temperature for 1 h (final volume 20 µL), and analyzed by LCMS. […]
kinase activity. A) Serial dilutions of compound (11a) (200 µM final top concentration) and IRAK4 […]
concentration) for 1 h before adding 5TAMRA-[…]-NH2 (100 nM final […]
concentration) and ATP (50 μM final concentration). […]
independent experiments, each performed in duplicate.
B) IRAK4 (1.5 µM) was incubated with compound (11a) (300 µM) for 1 h and analyzed by LCMS. The DMSO control was incubated for 5 h. For reference GT-hIRAK4-FLAG (tetraphosphorylated; MW = 53003 Da), compound (11a) (MW = 290 Da).
(1 picture or pasted object on this page, not shown here)

[2] = biological target: T2, RNF31 (E3 ubiquitin-protein ligase RNF31) (Homo sapiens, UniProt Q96EP0); assay: ABPP quantitative MS, HEK293T; format: cell-based; details: 30 μM (11a) 7 h vs DMSO, then 3 μM (15) 2 h
T2 construct: expressed in transfected cells; host or cells: HEK293T, transient, modified pcDNA3.1(+)
T2 sequence (Q96EP0 697-1072): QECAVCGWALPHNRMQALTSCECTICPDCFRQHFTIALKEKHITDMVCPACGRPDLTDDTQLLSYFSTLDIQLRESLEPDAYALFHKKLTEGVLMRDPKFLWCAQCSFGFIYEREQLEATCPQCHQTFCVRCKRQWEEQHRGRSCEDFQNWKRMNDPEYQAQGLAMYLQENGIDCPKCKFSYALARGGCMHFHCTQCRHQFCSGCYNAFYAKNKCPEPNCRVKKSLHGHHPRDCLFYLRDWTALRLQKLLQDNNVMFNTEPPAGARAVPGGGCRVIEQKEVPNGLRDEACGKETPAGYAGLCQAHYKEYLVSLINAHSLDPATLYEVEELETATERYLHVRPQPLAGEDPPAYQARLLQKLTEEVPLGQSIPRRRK
Protocol: (§1) control and cells treated with control compounds (11i) and (17) at 30 µM). HOIP RBR wild type […]
(§2) nm, indicating low to no labelling by (11a), and a dominant signal from the 800 channel (green).
(§3) C = HOIP RBR control (0.5 µg).
(§4) 5.2 Activity-based protein profiling – Enrichment and LC-MS
(§5) Cell culture and transfection, compound treatment, ha rvest and lysis
(§6) HEK293T cells were cultured and transfected as describ ed in section 4.8 above. MCF7 cells were seeded in 100 mm Petri dishes at 6 × 10^5 cells/dish and cultured overnight at 37 °C as described in section 4.8 above. Both cell types were treated with inhibitor (11a) (30 µM final concentration) or DMSO as described above, incubating for 7 h at 37 °C, followed by addition of clickable probe (15) (3 µM final concentration) and incubation for an additional 2 h. The cells were then harvested and lysed (50 mM Tris-HCl, pH 7.5, 1.5 mM MgCl2, 150 mM NaCl, 5% glycerol, 0.8% v/v IGEPAL-CA630, 25 mM NaF, 1 mM Na3VO4, complete protease inhibitor), and the protein concentration was determined by the BCA assay as described in section 4.7 above.
(§7) Enrichment of TCO-labelled proteins
(§8) Similar to a previously described protocol,22 tetrazine beads were generated by incubating high capacity neutravidin beads (500 µL; Thermo Scientific) with 0.1 µmol tetrazine-PEG4-biotin (Jena Bioscience) in PBS buffer over night at 4 °C, followed by blocking with 5 µL 100 mM biotin in DMSO for 30 minutes at 4 °C. The beads were washed 3× with buffer (50 mM Tris-HCl pH 7.4, 5% glycerol, 1.5 mM MgCl2, 150 mM NaCl, 1 mM Na3VO3, 5 mM NaF) supplemented with 0.4% IGEPAL CA-630 and adjusted to a 5% v/v slurry.
(§9) Lysate with a protein concentration of approx. 2 mg/mL (500 µL) were added to the TCO beads (35 µL) on a 96-well filter plate (Porvair, Dunn #240002) and incubated at 4°C for 2 h. After incubation, beads were washed using a vacuum manifold with 5 mL wash buffer 1 (WB1) (50 mM […]
(§10) (50 mM HEPES pH 8.5, 2 M urea), and 5 mL WB4 (50 mM HEPES pH 8.5). Proteins were then eluted by on bead digestion: 60 µL elution buffer (50 mM HEPES pH 8.5, 5 mM Tris-(2-carboxyethyl)phosphine, 15 mM chloroacetamide, 0.004 µg LysC/ µL (Wako chemicals), 0.004 µg trypsin/µL (Promega)) were added to the washed beads and incubated over night at room temperature. Eluates were collected by centrifugation, beads incubated with an additional 60 µL WB4, eluted and both eluates were combined and lyophilized. […]
(§11) proportional to the number of ions; this measure is referred to as ion area.24 Spectra matching to peptides were filtered according to the following criteria: mascot ion score >15, signal-to-background of the precursor ion >4, and signal -to-interference >0.5. Fold-changes were corrected for isotope purity and adjusted for interference caused by co-eluting nearly isobaric peaks.25 Protein quantification was derived from individual spectra matching to distinct peptides by using a sum-based bootstrap algorithm; 95% confidence intervals were calculated for all protein fold-changes that were quantified with more than three spectra.23 Relative protein abundance s were generated on the basis of MS1 abundances .26 Briefly, XIC peaks were matched to identified peptides. […] These values were then summed, and the mean was calculated.
(§12) In cases where fewer than 3 sequences were associated, the mean was calculated using XIC intensities from either one or two sequences.
(§13) Proteins were filtered for >1 quantified spectra matches (qusm). Residual binding was calculated […]

NUDT8 = biological target: T3, NUDT8 (Homo sapiens, UniProt Q8WV74); assay: ABPP quantitative MS, HEK293T; format: cell-based; details: 30 μM (11a) 7 h vs DMSO, then 3 μM (15) 2 h
T3 construct: endogenous in cells; host or cells: HEK293T
T3 sequence (Q8WV74 whole entry): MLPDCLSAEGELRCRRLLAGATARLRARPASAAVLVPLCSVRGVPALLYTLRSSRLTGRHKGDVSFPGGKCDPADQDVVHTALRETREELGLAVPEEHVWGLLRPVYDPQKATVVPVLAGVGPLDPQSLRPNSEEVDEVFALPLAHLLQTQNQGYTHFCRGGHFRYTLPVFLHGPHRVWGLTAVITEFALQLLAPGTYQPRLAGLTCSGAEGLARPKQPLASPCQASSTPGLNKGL
Protocol: as §1, §2, §3, §4, §5, §6, §7, §8, §9, §10, §11, §12, §13

ALDH6A1 = biological target: T4, ALDH6A1 (Homo sapiens, UniProt Q02252); assay: ABPP quantitative MS, HEK293T; format: cell-based; details: 30 μM (11a) 7 h vs DMSO, then 3 μM (15) 2 h
T4 construct: endogenous in cells; host or cells: HEK293T (A21); MCF7 (A27)
T4 sequence (Q02252 34-535): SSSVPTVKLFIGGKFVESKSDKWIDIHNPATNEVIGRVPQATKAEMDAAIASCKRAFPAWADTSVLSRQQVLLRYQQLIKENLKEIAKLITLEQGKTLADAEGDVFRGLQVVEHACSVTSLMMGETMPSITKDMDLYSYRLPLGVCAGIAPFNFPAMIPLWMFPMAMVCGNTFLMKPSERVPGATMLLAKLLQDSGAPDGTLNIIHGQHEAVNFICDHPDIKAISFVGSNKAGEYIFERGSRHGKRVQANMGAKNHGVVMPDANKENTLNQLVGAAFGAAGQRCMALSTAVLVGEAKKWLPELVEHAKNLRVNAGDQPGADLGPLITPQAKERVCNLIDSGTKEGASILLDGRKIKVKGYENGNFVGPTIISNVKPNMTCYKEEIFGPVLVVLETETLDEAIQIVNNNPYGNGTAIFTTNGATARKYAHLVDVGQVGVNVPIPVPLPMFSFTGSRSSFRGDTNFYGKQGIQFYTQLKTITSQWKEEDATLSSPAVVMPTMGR
Protocol: as §1, §2, §3, §4, §5, §6, §7, §8, §9, §10, §11, §12, §13

[3] = biological target: T5, IRAK4 (Interleukin-1 receptor-associated kinase 4) (Homo sapiens, UniProt Q9NWZ3); assay: ABPP quantitative MS, HEK293T; format: cell-based; details: 30 μM (11a) 7 h vs DMSO, then 3 μM (15) 2 h
T5 construct: endogenous in cells; host or cells: HEK293T (transfected with 3×FLAG HOIP RBR only)
T5 sequence (Q9NWZ3 whole entry): as the sequence (Q9NWZ3 whole entry) above
Protocol: as §1, §2, §3, §4, §5, §6, §7, §8, §9, §10, §11, §12, §13

TRMT61A = biological target: T6, TRMT61A (Homo sapiens, UniProt Q96FX7); assay: ABPP quantitative MS, HEK293T; format: cell-based; details: 30 μM (11a) 7 h vs DMSO, then 3 μM (15) 2 h
T6 construct: endogenous in cells; host or cells: HEK293T
T6 sequence (Q96FX7 whole entry): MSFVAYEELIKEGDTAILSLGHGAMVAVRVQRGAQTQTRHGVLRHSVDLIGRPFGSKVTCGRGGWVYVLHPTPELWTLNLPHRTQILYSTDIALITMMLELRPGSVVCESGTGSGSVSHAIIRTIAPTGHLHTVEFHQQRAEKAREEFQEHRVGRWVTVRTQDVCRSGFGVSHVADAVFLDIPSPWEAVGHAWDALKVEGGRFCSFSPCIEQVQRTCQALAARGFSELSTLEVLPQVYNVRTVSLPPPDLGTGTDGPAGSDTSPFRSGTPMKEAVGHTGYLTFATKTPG
Protocol: as §1, §2, §3, §4, §5, §6, §7, §8, §9, §10, §11, §12, §13

labelling of IRAK4-FLAG [1]: confirmed by LCMS
ratio: mean ratio between control and competition samples, RNF31 [2]: -2.293 log2
ratio: mean ratio between control and competition samples, NUDT8 (NUDT8): -1.172 log2
ratio: mean ratio between control and competition samples, ALDH6A1 (ALDH6A1): -1.278 log2
ratio: mean ratio between control and competition samples, IRAK4 [3]: -1.675 log2
ratio: mean ratio between control and competition samples, TRMT61A (TRMT61A): -1.293 log2
Compound: COC(=O)/C=C/CNC(=O)c1cc2c([nH]c1=O)CCCC2 [Compound 11a]
